Reference: patent US10059733B2 (NUCORION PHARMACEUTICALS, INC., priority 2014, dated 2018)
Read-outs that look alike come from different tables or passages of the source.

Assays:
HCV luciferase replicon [1] = assay: IC50 assay: inhibition of the HCV luciferase replicon in Huh7 cells; assay type: cell-based; settings: for IC50: Hepatitis C virus; for Therapeutic Index (TC50/IC50): TC50 in Huh7 / IC50 HCV replicon, 48 h
Procedure: After 48 h of treatment at 37° C., the media in each well was removed, the cells were gently washed once with phosphate buffered saline (PBS) and subsequently lysed by the addition of Glo Lysis Buffer (Promega). After a 15 min incubation at room temperature to allow for complete cell lysis, Bright-Glo luciferase reagent (Promega) was added to each well and the relative luciferase activity in each well was determined by using a Glowmax 96 microplate luminometer (Promega).
IC50 values determined using the above methods for inhibition of the HCV luciferase replicon in Huh7 cells are set forth in Table 1.
All compounds were purified by HPLC.

MCF-7 = assay: TC50 assay with human cancer cell lines, 96 h: MCF-7; assay type: cell-based
Procedure: (§3) Huh7 cells were maintained at 37° C. in a humidified atmosphere at 5% CO2 in DMEM containing 10% FBS. […] The cells were then treated with each compound at concentrations ranging from 500 μM to 0 μM in triplicate in DMEM media containing 2% FBS and 0.5% DMSO and without phenol red. After 48 h of treatment at 37° C., the relative number of living cells in each well was determined by using the CellTiter 96 system (Promega) according to the manufacturer's instructions. The 3-(4,5-dimethylthiazol-2-yl)-5-(3-carboxymethoxyphenyl)-2-(4-sulfophenyl)-2H-tetrazolium (MTS) and phenazine methosulfate (PMS) reagents were added to each well of the 96-well plate and the plate was incubated at 37° C. for approximately 2 h. The absorbance at 490 nm and 650 nm in each well was then determined by using a Flexstation 3 microplate reader (Molecular Dynamics). The absorbance determined at 650 nm was then subtracted from the absorbance determined at 490 nm to correct for light scattering. The corrected absorbance values representing the relative number of live cells in each condition were then plotted as a function of compound concentration, and the data were then fit to the following sigmoidal Emax equation by using Kaleidagraph: y=(Emax*x^Slope)/(TC50^Slope+x^Slope) where y is the relative corrected absorbance value, Emax is the maximum relative inhibition, x is the compound concentration, TC50 is the concentration of the compound at which the total cell population is reduced by 50%, and Slope is the slope of the curve.
(§4) Huh7, HEPG2, HEK293, MCF-7 and BxPC3 cell lines were maintained at 37° C. in a humidified atmosphere at 5% CO2 in DMEM containing 10% FBS. […] The cells were then treated with each compound at concentrations ranging from 500 μM to 0 μM in triplicate in DMEM media containing 2% FBS and 0.5% DMSO and without phenol red.

[2] = TC50 assay in Huh7 cells, 48 h (CellTiter 96); settings: human
Procedure: (§1) Huh7 cells were maintained at 37° C. in a humidified atmosphere at 5% CO2 in DMEM containing 10% FBS. […] The cells were then treated with each compound at concentrations ranging from 500 μM to 0 μM in triplicate in DMEM media containing 2% FBS and 0.5% DMSO and without phenol red. After 48 h of treatment at 37° C., the relative number of living cells in each well was determined by using the CellTiter 96 system (Promega) according to the manufacturer's instructions. The 3-(4,5-dimethylthiazol-2-yl)-5-(3-carboxymethoxyphenyl)-2-(4-sulfophenyl)-2H-tetrazolium (MTS) and phenazine methosulfate (PMS) reagents were added to each well of the 96-well plate and the plate was incubated at 37° C. for approximately 2 h. The absorbance at 490 nm and 650 nm in each well was then determined by using a Flexstation 3 microplate reader ([…]). The absorbance determined at 650 nm was then subtracted from the absorbance determined at 490 nm to correct for light scattering. The corrected absorbance values representing the relative number of live cells in each condition were then plotted as a function of compound concentration, and the data were then fit to the following sigmoidal Emax equation by using Kaleidagraph: y=(Emax*x^Slope)/(TC50^Slope+x^Slope) where y is the relative corrected absorbance value, Emax is the maximum relative inhibition, x is the compound concentration, TC50 is the concentration of the compound at which the total cell population is reduced by 50%, and Slope is the slope of the curve.
The data in Table 1 were determined for cells exposed to drug for 48 h. The IC50 is the concentration of each compound necessary to inhibit the replication of the HCV luciferase replicon to 50%. “TC50,” refers to toxic concentration necessary to reduce the cell population by 50%. All compounds were purified by HPLC.

HEK293 = assay: TC50 assay with human cancer cell lines, 96 h: HEK293; assay type: cell-based
Procedure: as §3, §4

BxPC3 = assay: TC50 assay with human cancer cell lines, 96 h: BxPC3; assay type: cell-based
Procedure: as §3, §4

RPK9 cells = assay: TC50 assay in gemcitabine resistant (dCK deficient) RPK9 cells, 48 h; settings: read-out: TC50 (μM) in RPK9 cells at 48 hr
Procedure: as §1
(§2) PK9 and RPK9 cells were maintained at 37° C. in a humidified atmosphere at 5% CO2 in Roswell Park Memorial Institute (RPMI) media containing 10% FBS. […] The cells were then treated with each compound at concentrations ranging from […] to 0 μM in triplicate in RPMI media containing 2% FBS and 0.5% DMSO and without phenol red. […] The RPK9 cells were derived from the parental PK9 cell line, and are deficient for dCK activity due to the partial deletion of the dCK gene.

Huh7 = assay: TC50 assay with human cancer cell lines, 96 h: Huh7; assay type: cell-based
Procedure: as §3, §4

HEPG2 = assay: TC50 assay with human cancer cell lines, 96 h: HEPG2; assay type: cell-based; settings: HepG2, 96 h, read-out: TC50 HEPG2 (μM)
Procedure: as §3, §4

PK9 cells = assay: TC50 assay in PK9 cells, 48 h; settings: Homo sapiens, PK9, 48 h, read-out: TC50 (μM) in PK9 cells at 48 hr
Procedure: as §1, §2

HCV luciferase replicon [3] = assay: Isobologram analysis of synergism with antiviral compound in HCV luciferase replicon; assay type: cell-based
Procedure: Isobologram analysis was conducted to assess the potential synergistic interaction of representative disclosed compounds with representative antiviral compounds. The isobolgram analysis was conducted as previously described by Chou and Talalay (see Chou T. C. and Talalay P. “Analysis of combined drug effects: a new look at a very old problem.” Trends Pharmacol Sci 1983; 4:450-4; and Chou T. C. and Talalay P. “Quantitative analysis of dose-effect relationships: the combined effects of multiple drugs or enzyme inhibitors.” Adv Enzyme Regul 1984; 22:27-55; both of which are incorporated herein by reference in their entirety). The definitions of synergism are those described by Chou (see Chou, T. C. (2006) Theoretical basis, experimental design, and computerized simulation of synergism and antagonism in drug combination studies. Pharmacol Rev. 58(3):621-81, which is incorporated herein by reference in its entirety).
In the synergism studies described herein, the antiviral compound shown in Table 6 was assessed in combination with a representative disclosed compound, Compound 1.

[4] = MCF7, 96 h, read-out: TC50 MCF-7 (μM)
[5] = HEK293, 96 h, read-out: TC50 HEK293 (μM)
[6] = BXPC-3, 96 h, read-out: TC50 BxPC3 (μM)
[7] = Huh-7, 96 h, read-out: TC50 Huh7 (μM)
[8] = Huh-7, Huh7 cells containing HCV luciferase replicon, 48 h exposure, read-out: IC50

For `COc1cc(C(=O)Nc2ccn([C@@H]3O[C@H](CO[P@@](=O)(N[C@@H](C)C(=O)OC(C)C)Oc4ccccc4)C(O)C3(F)F)c(=O)n2)cc(OC)c1OC` (stereo in doubt) [Compound 3], the IC50 (HCV luciferase replicon [1]; Huh-7, 48 h) was 274 ± 80 nM, the “Therapeutic Index (TC50/IC50)” value (HCV luciferase replicon [1]) was 210 and the CC50 (MCF-7; [4]) was 0.683 µM. For the same compound, the CC50 at 48 h [2] was 57.5 ± 11.6 µM, the CC50 (HEK293; [5]) was 1.1 µM and the CC50 (BxPC3; [6]) was 4.07 µM. It also gave a CC50 (RPK9 cells) of 24.2 ± 4.2 µM, a CC50 (Huh7; [7]) of 8.37 µM and a CC50 (HEPG2) of 1.57 µM. The CC50 (PK9 cells) was 18.5 ± 11.9 µM.
With `CC(C)OC(=O)[C@H](C)NP(=O)(OC[C@H]1OC(n2ccc(NC(=O)C3Cc4ccccc4C3)nc2=O)C(F)(F)[C@@H]1O)Oc1ccccc1` (stereo in doubt) [Compound 13, (2S)-isopropyl 2-(((R)-(((2R,3R)-5-(4-(2,3-dihydro-1H-indene-2-carboxamido)-2-oxopyrimidin-1(2H)-yl)-4,4-difluoro-3-hydroxytetrahydrofuran-2-yl)methoxy)(phenoxy)phosphoryl)amino)-propanoate] the IC50 (HCV luciferase replicon [1]; Huh-7, 48 h) was 345 nM, the “Therapeutic Index (TC50/IC50)” value (HCV luciferase replicon [1]) was 684 and the CC50 at 48 h [2] was 236 µM.
With `COC(=O)N[C@H](C(=O)N1CCC[C@H]1c1ncc(-c2ccc(-c3ccc(-c4cnc([C@@H]5CCCN5C(=O)[C@@H](NC(=O)OC)C(C)C)[nH]4)cc3)cc2)[nH]1)C(C)C` [BMS-790052, carbamic acid, N,N′-[[1,1′-biphenyl]-4,4′-diylbis[1H-imidazole-5,2-diyl-(2S)-2,1-pyrrolidinediyl[(1S)-1-(1-methylethyl)-2-oxo-2,1-ethanediyl]]]bis-, C,C′-dimethyl ester, reference compound] the “Combination Index” value (HCV luciferase replicon [3]; Compound 1 0.0 nM, BMS-790052 0.020 nM) was 1.000 and the “concentration of the single agent on the IC50 isobologram (Combination Index 1.000)” value (HCV luciferase replicon [3]; compound alone, other compound 0 nM) was 0.020 nM.
For `CCCC(CCC)C(=O)Nc1ccn([C@@H]2O[C@@H]3CO[P@@](=O)(OC(C)C)O[C@H]3C2(F)F)c(=O)n1` [Compound 2, N-(1-((2S,4aR,6R,7aR)-7,7-difluoro-2-isopropoxy-2-oxidotetrahydro-4H-furo[3,2-d][1,3,2]-dioxaphosphinin-6-yl)-2-oxo-1,2-dihydropyrimidin-4-yl)-2-propylpentanamide], the IC50 (HCV luciferase replicon [1]; [8]) was 7480 nM, the “Therapeutic Index (TC50/IC50)” value (HCV luciferase replicon [1]) was 23.4 and the CC50 at 48 h ([2]; Huh7 cells) was 175 ± 23 µM. For the same compound, the CC50 (RPK9 cells) was 537 ± 55 µM and the CC50 (PK9 cells) was 716 ± 104 µM.
In the case of `O=C(Nc1ccn(C2O[C@H](CO)[C@@H](O)C2(F)F)c(=O)n1)c1ccc2c(c1)CCCC2` (stereo partly drawn) [Compound 5, N-(1-((4R,5R)-3,3-difluoro-4-hydroxy-5-(hydroxymethyl)tetrahydrofuran-2-yl)-2-oxo-1,2-dihydropyrimidin-4-yl)-5,6,7,8-tetrahydronaphthalene-2-carboxamide], the IC50 (HCV luciferase replicon [1]; [8]) is reported as 86 nM, the “Therapeutic Index (TC50/IC50)” value (HCV luciferase replicon [1]) is reported as 1,535 and the CC50 at 48 h ([2]; Huh7 cells) is reported as 132 µM.
In the case of `O=C(Nc1ccn(C2O[C@H](CO)[C@@H](O)C2(F)F)c(=O)n1)c1ccc2cc(Br)ccc2c1` (stereo partly drawn) [Compound 6, 6-bromo-N-(1-((4R,5R)-3,3-difluoro-4-hydroxy-5-(hydroxymethyl)tetrahydrofuran-2-yl)-2-oxo-1,2-dihydropyrimidin-4-yl)-2-naphthamide], the IC50 (HCV luciferase replicon [1]; [8]) is reported as 185 nM, the “Therapeutic Index (TC50/IC50)” value (HCV luciferase replicon [1]) is reported as 400 and the CC50 at 48 h ([2]; Huh7 cells) is reported as 74 µM.
In the case of `O=C(Nc1ccn(C2O[C@H](CO)[C@@H](O)C2(F)F)c(=O)n1)c1ccc2ccccc2c1` (stereo partly drawn) [Compound 7, N-(1-((4R,5R)-3,3-difluoro-4-hydroxy-5-(hydroxymethyl)tetrahydrofuran-2-yl)-2-oxo-1,2-dihydropyrimidin-4-yl)-2-naphthamide], the IC50 (HCV luciferase replicon [1]; [8]) is reported as 126 nM, the “Therapeutic Index (TC50/IC50)” value (HCV luciferase replicon [1]) is reported as 992 and the CC50 at 48 h ([2]; Huh7 cells) is reported as 125 µM.
For `O=C(Nc1ccn(C2O[C@H](CO)[C@@H](O)C2(F)F)c(=O)n1)c1ccc2c(c1)C(=O)c1ccccc1C2=O` (stereo partly drawn) [Compound 8, N-(1-((4R,5R)-3,3-difluoro-4-hydroxy-5-(hydroxymethyl)tetrahydrofuran-2-yl)-2-oxo-1,2-dihydropyrimidin-4-yl)-9,10-dioxo-9,10-dihydroanthracene-2-carboxamide], the IC50 (HCV luciferase replicon [1]; [8]) was 12.8 nM, the “Therapeutic Index (TC50/IC50)” value (HCV luciferase replicon [1]) was 19,450 and the CC50 at 48 h ([2]; Huh7 cells) was 249 µM.
In the case of `O=C(Nc1ccn(C2O[C@H](CO)[C@@H](O)C2(F)F)c(=O)n1)c1cccc2c1CCCC2` (stereo partly drawn) [Compound 9, N-(1-((4R,5R)-3,3-difluoro-4-hydroxy-5-(hydroxymethyl)tetrahydrofuran-2-yl)-2-oxo-1,2-dihydropyrimidin-4-yl)-5,6,7,8-tetrahydronaphthalene-1-carboxamide], the IC50 (HCV luciferase replicon [1]; [8]) is reported as 161 nM, the “Therapeutic Index (TC50/IC50)” value (HCV luciferase replicon [1]) is reported as 571 and the CC50 at 48 h ([2]; Huh7 cells) is reported as 92 µM.
With `COc1ccc2cc(C(=O)Nc3ccn(C4O[C@H](CO)[C@@H](O)C4(F)F)c(=O)n3)ccc2c1` (stereo partly drawn) [Compound 10, N-(1-((4R,5R)-3,3-difluoro-4-hydroxy-5-(hydroxymethyl)tetrahydrofuran-2-yl)-2-oxo-1,2-dihydropyrimidin-4-yl)-6-methoxy-2-naphthamide] the IC50 (HCV luciferase replicon [1]; [8]) was 93.5 nM, the “Therapeutic Index (TC50/IC50)” value (HCV luciferase replicon [1]) was 1,796 and the CC50 at 48 h ([2]; Huh7 cells) was 168 µM.
In the case of `O=C(Nc1ccn(C2O[C@H](CO)[C@@H](O)C2(F)F)c(=O)n1)C1Cc2ccccc2C1` (stereo partly drawn) [Compound 11, N-(1-((4R,5R)-3,3-difluoro-4-hydroxy-5-(hydroxymethyl)tetrahydrofuran-2-yl)-2-oxo-1,2-dihydropyrimidin-4-yl)-2,3-dihydro-1H-indene-2-carboxamide], the IC50 (HCV luciferase replicon [1]; [8]) is reported as 10 nM, the “Therapeutic Index (TC50/IC50)” value (HCV luciferase replicon [1]) is reported as >50,000 and the CC50 at 48 h ([2]; Huh7 cells) is reported as > 500 µM.
For `O=C(Nc1ccn(C2O[C@H](CO)[C@@H](O)C2(F)F)c(=O)n1)c1ccc2c(c1)CCC2` (stereo partly drawn) [Compound 12, N-(1-((4R,5R)-3,3-difluoro-4-hydroxy-5-(hydroxymethyl)tetrahydrofuran-2-yl)-2-oxo-1,2-dihydropyrimidin-4-yl)-2,3-dihydro-1H-indene-5-carboxamide], the IC50 (HCV luciferase replicon [1]; [8]) was 58.6 nM, the “Therapeutic Index (TC50/IC50)” value (HCV luciferase replicon [1]) was 6,451 and the CC50 at 48 h ([2]; Huh7 cells) was 378 µM.
In the case of `O=C(Nc1ccn(C2O[C@H](CO)[C@@H](O)C2(F)F)c(=O)n1)c1ccc2c(c1)OCO2` (some centres unmarked) [Non-phosphorylated analog of Compound 4], the IC50 (HCV luciferase replicon [1]; [8]) is reported as 59.8 ± 8.4 nM, the “Therapeutic Index (TC50/IC50)” value (HCV luciferase replicon [1]) is reported as 7910 and the CC50 (MCF-7; MCF7, 96 h of treatment, read-out: TC50 MCF-7) is reported as 1.19 µM. For the same compound, the CC50 at 48 h ([2]; Huh7 cells) was 473 ± 74 µM, the CC50 (HEK293; HEK293, 96 h of treatment, read-out: TC50 HEK293) was 4.09 µM and the CC50 (BxPC3; BXPC-3, 96 h of treatment, read-out: TC50 BxPC3) was 0.72 µM. The CC50 (RPK9 cells) was > 500 µM and the CC50 (Huh7; Huh-7, 96 h of treatment, read-out: TC50 Huh7) was 7.04 µM.
Compound `CC(C)OC(=O)[C@H](C)N[P@](=O)(OC[C@H]1O[C@@H](n2ccc(N)nc2=O)C(F)(F)C1O)Oc1ccccc1` (some centres unmarked) [Phosphorylated analog of Gemcitabine] has a CC50 (MCF-7; [4]) of 0.115 µM, a CC50 (HEK293; [5]) of 0.38 µM and a CC50 (BxPC3; [6]) of 0.76 µM. It also gave a CC50 (RPK9 cells) of 21 µM, a CC50 (Huh7; [7]) of 4.15 µM and a CC50 (HEPG2) of 0.89 µM. It also gave a CC50 (PK9 cells) of 11.2 µM.
